Assays:
Type in all cases: cell-based
[1] = tested on: melanin-producing enzymes (tyrosinase, TRP2) in normal human melanocytes; assay: Protein expression of melanin-producing enzymes (tyrosinase, TRP2) in normal human melanocytes without inducer; conditions: no inducer, 0.001-100 nM, 4 days
Protocol: (§1) Normal human melanocytes are placed on a 6-well plate, and the next day, the medium is changed to a melanocyte-free melanocyte medium. At this time, they are treated with each composition including the compound represented by Chemical Formula 1-1 (Cayman chemical) in an amount of 0 nM, 0.001 nM, 0.01 nM, 0.1 nM, 1 nM, 10 nM, and 100 nM, respectively (based on the total amount of the composition). After culturing for 4 days, the cells are broken using a lysis buffer in each well and then the proteins are separated. Subsequently, the separated proteins are measured with respect to relative protein expression levels by using a specific antibody for tyrosinase which is a melanin-producing enzyme from, TRP2 (tyrosinase related protein 2).

[2] = tested on: melanin-producing enzyme (tyrosinase, TRP2) in normal human melanocytes; assay: Increase in protein expression of melanin-producing enzyme (tyrosinase, TRP2) by pigmentation inducer (α-MSH); conditions: 500 nM α-MSH, 0.001-100 nM, 4 days, FIGS. 4 to 6
Protocol: as §1, with “PMA-free” for “melanocyte-free”, “composition) along with 500 nM pigmentation inducer (α-MSH).” for “composition).”, “TRP2 (tyrosinase related protein 2),” for “tyrosinase”, “enzyme.” for “enzyme from, TRP2 (tyrosinase related protein 2).”

[3] = tested on: melanin-producing enzyme (tyrosinase, TRP2) in normal human melanocytes; assay: Increase in protein expression of melanin-producing enzyme (tyrosinase, TRP2) by pigmentation inducer (IBMX); conditions: 100 μM IBMX, 0.001-100 nM, 4 days, FIGS. 7 to 9
Protocol: as §1, with “PMA-free” for “melanocyte-free”, “composition) along with 100 μM pigmentation inducer (IBMX).” for “composition).”, “TRP2 (tyrosinase related protein 2),” for “tyrosinase”, “enzyme.” for “enzyme from, TRP2 (tyrosinase related protein 2).”

[4] = tested on: melanin-producing enzymes (TRP1, TRP2) in normal human melanocytes; assay: Increase in protein expression of melanin-producing enzymes (TRP1, TRP2) by C. acnes; conditions: 10^7 CFU/ml live C. acnes, 1 nM to 100 nM, 2 days, FIGS. 11 and 12
Protocol: Cutibacterium acnes (C. acnes, ATCC 6919) are inoculated in a BHI medium and cultured at 37° C. under anaerobic conditions for 72 hours to 96 hours, and then, the medium is collected. The collected medium is centrifuged (4° C., 10 minutes at 5,000×g), precipitating the bacteria. The precipitated bacteria are twice washed with phosphate-buffered saline (PBS) and treated up to a final concentration of 10^10 CFU/ml, preparing a live C. acnes stock, and the live C. acnes stock is cryopreserved at −80° C. Normal human melanocytes are placed on 6-well plates, and the next day, the medium is changed to a PMA-free melanocyte medium. Herein, 10^4, 10^5, 10^6, and 10^7 CFU/ml of live C. acnes are treated. After culturing for 2 days, the cells broken by using a lysis buffer in each well to separate proteins. The separated proteins are measured with respect to relative protein expression levels by using a specific antibody for TRP1 (tyrosinase related protein 1) and TRP2 (tyrosinase related protein 2), which are melanin-producing enzymes.
Normal human melanocytes are placed on 6-well plates, and the next day, the medium is changed to a PMA-free melanocyte medium. […] The separated proteins are measured with respect to relative protein expression levels by using a specific antibody for TRP1 (tyrosinase related protein 1) and TRP2 (tyrosinase related protein 2), which are melanin-producing enzymes.

SMILES: CC/C=C\C[C@H](O)/C=C/C=C\C/C=C\C=C\[C@@H](O)C/C=C\CCC(=O)O [Chemical Formula 1-1]
- increase in the protein expression of the melanin-producing enzyme (tyrosinase, TRP2) ([1]; antibody detection vs GAPDH, FIGS. 1 to 3): effectively inhibited
- increase in protein expression of the tyrosinase ([1]; concentration dependence): effectively inhibited depending on a concentration
- increase in protein expression of the melanin-producing enzyme (tyrosinase, TRP2) by α-MSH [2]: effectively inhibited
- increase in protein expression of the melanin-producing enzyme (tyrosinase, TRP2) by IBMX [3]: effectively inhibited
- increase in protein expression of the melanin-producing enzyme (TRP1, TRP2) by C. acnes [4]: effectively inhibited
